Where “and” joins values, the source holds several entries; their conditions need not be identical. Identical values can stand only once. Like-named read-outs stand apart in the source and are kept apart here.
Legend:
delta opioid receptor = biological target: T1, delta opioid receptor (Rattus norvegicus, UniProt P33533); assay: Rat brain delta opioid receptor binding assay; conditions: rDOR (Ki, nM): Rat delta opioid receptor binding constant, rat forebrain membranes; [3H]DPDPE or [3H]naltrindole, 25° C., 2.5 h
T1 construct: the forebrains were homogenized in Tris buffer in a Teflon®-glass homogenizer; from tissue; host or cells: forebrain of male Wistar rats (particulate membrane preparation)
Experimental: Rat Brain Delta Opioid Receptor Binding Assay
(§1) Procedure: Male, Wistar rats (150-250 g, VAF, Charles River, Kingston, N.Y.) were killed by CO2, and their brains removed and placed immediately in ice cold Tris HCl buffer (50 mM, pH 7.4). The forebrains were separated from the remainder of the brain by a coronal transection, beginning dorsally at the colliculi and passing ventrally through the midbrain-pontine junction. After dissection, the forebrains were homogenized in Tris buffer in a Teflon®-glass homogenizer. The homogenate was diluted to a concentration of 1 g of forebrain tissue per 80 mL Tris and centrifuged at 39,000×g for 10 min. The pellet was resuspended in the same volume of Tris buffer containing 5 mM MgCl2 with several brief pulses from a Polytron homogenizer. This particulate preparation was used for the delta opioid binding assays.
(§2) Analysis: The data from the scintillation counter were used to calculate either the % inhibition compared to control binding (when only a single concentration of test compound was evaluated) or a Ki value (when a range of concentrations was tested). Percent inhibition was calculated as: [(total dpm−test compound dpm)/(total dpm−nonspecific dpm)]*100. Kd and Ki values were calculated using GraphPad PRISM data analysis program.

mu opioid receptor = biological target: T2, mu opioid receptor (Rattus norvegicus, UniProt P33535); assay: Rat brain mu opioid receptor binding assay; conditions: rMOR (Ki, nM): Rat mu opioid receptor binding constant, rat forebrain membranes; [3H]DAMGO, 25° C., 2.5 h
T2 construct: the forebrains were homogenized in Tris buffer in a Teflon®-glass homogenizer; from tissue; host or cells: forebrain of male Wistar rats (particulate membrane preparation)
Experimental: Rat Brain Mu Opioid Receptor Binding Assay
as §1
as §2, with “concentrations” for “concentrations was”

[1] = biological target: T3, delta opioid receptor (NG108-15 cell membranes) (Mus musculus, UniProt P32300); assay: [35S]GTPγS binding assay in NG108-15 cell membranes (delta opioid); assay type: biochemical; conditions: for delta GTPγS binding Rel Eff: value in parentheses
T3 construct: NG108-15 cell membranes were purchased from Applied Cell Sciences (Rockville, Md.); host or cells: NG108-15 cell membranes (purchased)
Experimental: Functional Assay: [^35S]GTPγS Binding Assay in NG108-15 Cell Membranes (Delta Opioid)
Methods: NG108-15 cell membranes were purchased from Applied Cell Sciences (Rockville, Md.). A sample (8 mg/mL) of membrane protein suspended in 10 mM TRIS-HCl pH 7.2, 2 mM EDTA, 10% sucrose. Membranes were maintained at 4-8° C. A 1 mL volume of membranes was added into 10 mL cold binding assay buffer. The assay buffer contained 50 mM Tris, pH 7.6, 5 mM MgCl2, 100 mM NaCl, 1 mM DTT and 1 mM EGTA. The membrane suspension was homogenized twice with a Polytron, and centrifuged at 3000 rpm for 10 min. The supernatant was then centrifuged at 18,000 rpm for 20 min. Ten mL assay buffer was added into the pellet containing tube. The pellet and buffer were mixed with a Polytron.
Incubation procedure: The pellet membranes (75 μg/mL) were preincubated with SPA (10 mg/mL) at 25° C. for 45 min in the assay buffer. The SPA (5 mg/mL) coupled with membranes (37.5 μg/mL) was then incubated with 0.1 nM [^35S]GTPγS in the same Tris buffer containing 100 μM GDP in total volume of 200 μL. Increasing concentrations of receptor agonists were used to stimulate [^35S]-GTPγS binding. The basal binding was tested in the absence of agonists and non-specific binding was tested in the presence of 10 μM unlabeled GTPγS. The data were analyzed on a Packard Top Count.
% of Basal=(stimulated−non specific)*100/(basal−non specific).
(§3) EC50 values were calculated using GraphPad Prism.

[2] = biological target: T4, hMOR (CHO-hMOR cell membranes) (Homo sapiens, UniProt P35372); assay: [35S]GTPγS binding assay in CHO-hMOR cell membranes; assay type: biochemical; conditions: for mu GTPγS binding Rel Eff: value in parentheses
T4 construct: host or cells: CHO cells expressing hMOR (purchased membranes)
Experimental: Functional Assay: [^35S]GTPγS Binding Assays in CHO-hMOR Cell Membranes
Methods: CHO-hMOR cell membranes were purchased from Receptor Biology, Inc. (Baltimore, Md.). About 10 mg/mL of membrane protein was suspended in 10 mM TRIS-HCl pH 7.2, 2 mM EDTA, 10% sucrose, and the suspension kept on ice. A 1 mL volume of membranes was added to 15 mL cold binding assay buffer containing 50 mM HEPES, pH 7.6, 5 mM MgCl2, 100 mM NaCl, 1 mM DTT and 1 mM EDTA. The membrane suspension was homogenized with a Polytron and centrifuged at 3,000 rpm for 10 min. The supernatant was then centrifuged at 18,000 rpm for 20 min. The pellet was resuspended in 10 mL assay buffer with a Polytron. The membranes were preincubated with wheat germ agglutinin coated SPA beads (Amersham) at 25° C. for 45 min in the assay buffer. The SPA bead (5 mg/mL) coupled membranes (10 μg/mL) were then incubated with 0.5 nM [^35S]GTPγS in the assay buffer. […] A range of concentrations of receptor agonist was used to stimulate [^35S]GTPγS binding. Both basal and non-specific binding was tested in the absence of agonist; non-specific binding determination included 10 μM unlabeled GTPγS.
Compounds were tested for function as antagonists by evaluating their potential to inhibit agonist-stimulated GTPγS binding. Radioactivity was quantified on a Packard TopCount. The following parameters were calculated:
as §3

[3] = read-out: delta GTPγS binding EC50

T4 sequence (P35372 whole entry): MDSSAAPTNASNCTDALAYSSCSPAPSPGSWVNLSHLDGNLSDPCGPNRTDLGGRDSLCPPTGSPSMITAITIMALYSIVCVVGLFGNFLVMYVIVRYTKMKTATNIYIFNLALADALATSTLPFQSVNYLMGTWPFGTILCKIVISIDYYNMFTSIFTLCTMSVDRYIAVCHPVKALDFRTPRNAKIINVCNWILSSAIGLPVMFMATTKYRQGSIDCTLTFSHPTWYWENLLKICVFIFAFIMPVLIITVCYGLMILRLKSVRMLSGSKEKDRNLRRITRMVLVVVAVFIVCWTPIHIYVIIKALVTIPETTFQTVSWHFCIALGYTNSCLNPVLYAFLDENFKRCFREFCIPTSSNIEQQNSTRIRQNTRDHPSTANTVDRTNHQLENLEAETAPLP
T1 sequence (P33533 whole entry): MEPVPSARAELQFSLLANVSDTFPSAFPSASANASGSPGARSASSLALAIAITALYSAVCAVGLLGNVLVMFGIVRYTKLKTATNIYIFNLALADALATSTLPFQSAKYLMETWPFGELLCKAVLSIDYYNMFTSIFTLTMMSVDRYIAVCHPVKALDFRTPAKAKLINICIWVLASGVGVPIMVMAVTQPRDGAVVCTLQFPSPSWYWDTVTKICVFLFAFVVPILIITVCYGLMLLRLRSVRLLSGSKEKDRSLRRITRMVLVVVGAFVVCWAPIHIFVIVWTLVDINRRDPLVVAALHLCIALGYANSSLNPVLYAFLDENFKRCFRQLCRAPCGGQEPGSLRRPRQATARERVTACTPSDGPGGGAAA
T3 sequence (P32300 whole entry): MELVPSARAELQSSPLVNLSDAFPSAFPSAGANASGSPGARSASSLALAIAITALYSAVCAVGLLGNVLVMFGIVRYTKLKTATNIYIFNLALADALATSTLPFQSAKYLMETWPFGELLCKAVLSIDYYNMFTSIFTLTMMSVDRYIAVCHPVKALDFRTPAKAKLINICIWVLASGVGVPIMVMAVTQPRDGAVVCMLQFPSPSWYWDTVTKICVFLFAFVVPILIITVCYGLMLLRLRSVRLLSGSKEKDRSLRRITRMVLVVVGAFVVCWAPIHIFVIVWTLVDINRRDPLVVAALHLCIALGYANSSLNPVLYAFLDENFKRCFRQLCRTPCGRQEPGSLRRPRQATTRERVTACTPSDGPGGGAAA
T2 sequence (P33535 whole entry): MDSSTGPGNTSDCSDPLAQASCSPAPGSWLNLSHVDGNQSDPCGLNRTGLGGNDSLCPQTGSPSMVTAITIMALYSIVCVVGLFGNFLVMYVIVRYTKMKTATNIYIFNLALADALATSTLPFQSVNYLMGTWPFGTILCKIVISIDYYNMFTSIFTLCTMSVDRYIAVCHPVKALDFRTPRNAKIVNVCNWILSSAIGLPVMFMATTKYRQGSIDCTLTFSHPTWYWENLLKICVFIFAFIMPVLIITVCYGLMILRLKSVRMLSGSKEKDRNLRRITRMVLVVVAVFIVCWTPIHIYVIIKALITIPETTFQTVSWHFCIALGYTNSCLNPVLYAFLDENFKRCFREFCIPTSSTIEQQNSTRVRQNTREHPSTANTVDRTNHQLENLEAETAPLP

SMILES	Ki (delta opioid receptor)	Ki (mu opioid receptor)	EC50 ([1]; delta GTPγS binding EC50 (nM)) [nM]	delta GTPγS binding Rel Eff [1]	EC50 [2] [nM]	mu GTPγS binding Rel Eff ([2]; CHO-hMOR cell membranes)	EC50 [1, 3] [nM]	EC50 ([2]; CHO-hMOR cell membranes, read-out: mu GTPγS binding EC50) [nM]
Oc1cccc2c1Oc1ccccc1C2=C1CC2CCC(C1)N2 (racemic) [Cpd 2, 9-(8-Aza-bicyclo[3.2.1]oct-3-ylidene)-9H-xanthen-4-ol]	0.48 nM	7 nM	50.9	0.67	382	0.37	–	–
Oc1cccc2c1Oc1ccccc1C2=C1CC2CCC(C1)N2 (single isomer, unassigned) [Cpd 8, 9-(8-Azabicyclo[3.2.1]oct-3-ylidene)-9H-xanthen-4-ol]	0.56 nM	3.5 nM	9.98	–	902	–	–	–
NC(=O)c1cccc2c1Oc1ccccc1C2=C1CC2CCC(C1)N2 (single isomer, unassigned) [Cpd 37, 9-(8-Azabicyclo[3.2.1]oct-3-ylidene)-9H-xanthene-4-carboxylic acid amide]	4 nM	29 nM	156	–	878	–	–	–
Oc1cccc2c1Oc1ccccc1C2=C1CC2CCC(C1)N2Cc1ccccc1 (single isomer, unassigned) [Cpd 45, 9-(8-Benzyl-8-azabicyclo[3.2.1]oct-3-ylidene)-9H-xanthen-4-ol]	9.62 nM	11.4 nM	1420	–	–	–	–	–
Oc1cccc2c1Oc1ccccc1C2=C1CC2CCC(C1)N2Cc1ccccc1 (single isomer, unassigned) [Cpd 46, 9-(8-Benzyl-8-azabicyclo[3.2.1]oct-3-ylidene)-9H-xanthen-4-ol]	0.03 nM	0.19 nM	–	–	–	–	10.2	–
O=C(Nc1ccccc1)c1cccc2c1Oc1ccccc1C2=C1CC2CCC(C1)N2 (single isomer, unassigned) [Cpd 48, 9-(8-Azabicyclo[3.2.1]oct-3-ylidene)-9H-xanthene-4-carboxylic acid phenylamide]	3.71 nM	3.58 nM	–	–	–	–	101	–
Oc1cccc2c1Oc1ccccc1C2=C1CC2CCC(C1)N2Cc1cccnc1 (single isomer, unassigned) [Cpd 50, 9-(8-Pyridin-3-ylmethyl-8-azabicyclo[3.2.1]oct-3-ylidene)-9H-xanthen-4-ol]	0.08 nM	0.68 nM	–	–	–	–	218	–
CN1C2CCC1CC(=C1c3ccccc3Oc3c(O)cccc31)C2 (single isomer, unassigned) [Cpd 51, 9-(8-Methyl-8-azabicyclo[3.2.1]oct-3-ylidene)-9H-xanthen-4-ol]	11.2 nM	138 nM	59.2	–	–	–	–	–
O=C(NCCc1ccccc1)c1cccc2c1Oc1ccccc1C2=C1CC2CCC(C1)N2 (single isomer, unassigned) [Cpd 56, 9-(8-Azabicyclo[3.2.1]oct-3-ylidene)-9H-xanthene-4-carboxylic acid phenethylamide]	49.6 nM	6.96 nM	–	–	–	–	40.1	–
Oc1cccc2c1Oc1ccccc1C2=C1CC2CCC(C1)N2Cc1ccoc1 (single isomer, unassigned) [Cpd 58, 9-(8-Furan-3-ylmethyl-8-azabicyclo[3.2.1]oct-3-ylidene)-9H-xanthen-4-ol]	0.1 nM	0.45 nM	–	–	–	–	2.6	–
NC(=O)c1cccc2c1Oc1ccccc1C2=C1CC2CCC(C1)N2 [Cpd 3, 9-(8-Aza-bicyclo[3.2.1]oct-3-ylidene)-9H-xanthene-4-carboxylic acid amide]	3.2 nM	29.4 nM	42	–	3960	–	–	–
NC(=O)c1cccc2c1Oc1ccccc1C2=C1CC2CCC(C1)N2Cc1ccoc1 [Cpd 4, 9-(8-Furan-3-ylmethyl-8-azabicyclo[3.2.1]oct-3-ylidene)-9H-xanthene-4-carboxylic acid amide]	2.3 nM	2.5 nM	–	–	–	–	9.4	4040
CNC(=O)c1cccc2c1Oc1ccccc1C2=C1CC2CCC(C1)N2 [Cpd 10, 9-(8-Azabicyclo[3.2.1]oct-3-ylidene)-9H-xanthene-4-carboxylic acid methylamide]	–	27 nM and 51 nM	617	–	> 10000	–	–	–
O=C(Nc1ccccc1)c1cccc2c1Oc1ccccc1C2=C1CC2CCC(C1)N2 [Cpd 12, 9-(8-Azabicyclo[3.2.1]oct-3-ylidene)-9H-xanthene-4-carboxylic acid phenylamide]	272 nM and 67.9 nM	32 nM	30.3	1.03	611	0.96	–	–
O=C(NCc1ccccc1)c1cccc2c1Oc1ccccc1C2=C1CC2CCC(C1)N2 [Cpd 13, 9-(8-Azabicyclo[3.2.1]oct-3-ylidene)-9H-xanthene-4-carboxylic acid benzylamide]	–	15 nM and 12.7 nM	5.68	0.87	717	0.67	–	–
O=C(NCCc1ccccc1)c1cccc2c1Oc1ccccc1C2=C1CC2CCC(C1)N2 [Cpd 14, 9-(8-Azabicyclo[3.2.1]oct-3-ylidene)-9H-xanthene-4-carboxylic acid phenethyl-amide]	–	44 nM and 36.2 nM	10.4	0.92	997	0.54	–	–
Oc1cccc2c1Oc1ccccc1C2=C1CCNCC1 [Cpd 16, 9-Piperidin-4-ylidene-9H-xanthen-4-ol]	15.1 nM	776 nM	964	–	–	–	–	–
CN1C2CCC1CC(=C1c3ccccc3Oc3c(O)cccc31)C2 [Cpd 19, 9-(8-Methyl-8-azabicyclo[3.2.1]oct-3-ylidene)-9H-xanthen-4-ol]	28.3 nM	372 nM	768	–	> 10000	–	–	–
Oc1cccc2c1Oc1ccccc1C2=C1CC2CCCC(C1)N2 [Cpd 20, 9-(9-Azabicyclo[3.3.1]non-3-ylidene)-9H-xanthen-4-ol]	20.2 nM	32.6 nM	180	–	7080	–	–	–
O=CNc1cccc2c1Oc1ccccc1C2=C1CC2CCC(C1)N2 [Cpd 44, N-[9-(8-Azabicyclo[3.2.1]oct-3-ylidene)-9H-xanthen-4-yl]-formamide]	19.2 nM	45.2 nM	7.03	–	–	–	–	–
NC(=O)c1cccc2c1Sc1ccccc1C2=C1CC2CCC(C1)N2 [Cpd 63, 9-(8-Azabicyclo[3.2.1]oct-3-ylidene)-9H-thioxanthene-4-carboxylic acid amide]	0.71 nM	3.31 nM	2.7	–	–	–	–	–

From patent publication US20090275610A1, “TRICYCLIC OPIOID MODULATORS” (priority 2005, published 2009)
